Data from article PMC4303209, “A novel phosphatidylinositol 3-kinase (PI3K) inhibitor directs a potent FOXO-dependent, p53-independent cell cycle arrest phenotype characterized by the differential induction of a subset of FOXO-regulated genes” (Breast Cancer Research : BCR, 2014).

Tested on: MCF-7 breast cancer cells
Assay: Microarray gene expression analysis (Agilent whole human genome 4 x 44K; compound vs DMSO, LIMMA log2 fold change)
Format: cell-based
Conditions: cell cycle genes

In the case of `Cn1ncc2c(N3CCOCC3)nc(-c3cccc(O)c3)nc21` [ETP-45658], the “MLF1 log2FC” value (Gene 4291) is reported as 0.627, the “MLH1 log2FC” value (Gene 4292) is reported as 0.538 and the “MAP3K11 log2FC” value (Gene 4296) is reported as -0.949. For the same compound, the “MNAT1 log2FC” value (Gene 4331) was 0.729, the “MNT log2FC” value (Gene 4335) was 1.624 and the “MOS log2FC” value (Gene 4342) was -0.164. The “MRE11A log2FC” value (Gene 4361) was 0.332, the “MSH2 log2FC” value (Gene 4436) was 0.939 and the “MSH3 log2FC” value (Gene 4437) was 0.739. The “MSH4 log2FC” value (Gene 4438) was -0.048, the “MSX1 log2FC” value (Gene 4487) was -0.324 and the “MSX2 log2FC” value (Gene 4488) was 0.054. The “MUC1 log2FC” value (Gene 4582) was -0.901, the “TRIM37 log2FC” value (Gene 4591) was 0.868 and the “MX2 log2FC” value (Gene 4600) was -0.054. For the same compound, the “MYB log2FC” value (Gene 4602) was 0.452, the “MYBL2 log2FC” value (Gene 4605) was -0.545 and the “MYC log2FC” value (Gene 4609) was 0.554. The “GADD45B log2FC” value (Gene 4616) was 0.642, the “MYH9 log2FC” value (Gene 4627) was -0.364 and the “MYH10 log2FC” value (Gene 4628) was -0.039. The “PPP1R12A log2FC” value (Gene 4659) was 0.489, the “PPP1R12B log2FC” value (Gene 4660) was 0.389 and the “NUBP1 log2FC” value (Gene 4682) was -0.227. For the same compound, the “NBN log2FC” value (Gene 4683) was 0.839, the “NEDD9 log2FC” value (Gene 4739) was -0.017 and the “NEK1 log2FC” value (Gene 4750) was 0.621. For the same compound, the “NEK2 log2FC” value (Gene 4751) was 0.969, the “NEUROD1 log2FC” value (Gene 4760) was -0.043 and the “NGFR log2FC” value (Gene 4804) was -0.063. The “NOTCH2 log2FC” value (Gene 4853) was 0.166, the “NPAT log2FC” value (Gene 4863) was 0.585 and the “NPM1 log2FC” value (Gene 4869) was 0.586. The “NUP88 log2FC” value (Gene 4927) was 0.539, the “ODF2 log2FC” value (Gene 4957) was -0.215 and the “OSM log2FC” value (Gene 5008) was 0.056. For the same compound, the “OVOL1 log2FC” value (Gene 5017) was -0.043, the “PAFAH1B1 log2FC” value (Gene 5048) was 0.720 and the “PAK1 log2FC” value (Gene 5058) was 0.117. The “PAK3 log2FC” value (Gene 5063) was 0.230, the “PCM1 log2FC” value (Gene 5108) was 0.687 and the “PCNT log2FC” value (Gene 5116) was 0.317. For the same compound, the “PDGFB log2FC” value (Gene 5155) was -0.598, the “PDGFRB log2FC” value (Gene 5159) was 0.022 and the “PGGT1B log2FC” value (Gene 5229) was -0.232. The “ABCB1 log2FC” value (Gene 5243) was -0.025, the “PIK3C3 log2FC” value (Gene 5289) was 1.044 and the “PIM1 log2FC” value (Gene 5292) was 1.131. The “PIN1 log2FC” value (Gene 5300) was -0.195, the “PKD1 log2FC” value (Gene 5310) was 0.265 and the “PKD2 log2FC” value (Gene 5311) was 0.346. The “PKHD1 log2FC” value (Gene 5314) was -0.057, the “PLAGL1 log2FC” value (Gene 5325) was 0.310 and the “PML log2FC” value (Gene 5371) was -0.804. For the same compound, the “PMS1 log2FC” value (Gene 5378) was 0.682, the “PMS2 log2FC” value (Gene 5395) was 0.442 and the “POLD1 log2FC” value (Gene 5424) was 0.148. The “POLE log2FC” value (Gene 5426) was -0.223, the “PPAT log2FC” value (Gene 5471) was 0.243 and the “PPM1A log2FC” value (Gene 5494) was 0.474. For the same compound, the “PPP1CB log2FC” value (Gene 5500) was 1.012, the “PPP1CC log2FC” value (Gene 5501) was 0.572 and the “PPP2R1A log2FC” value (Gene 5518) was -0.055. The “PPP2R2A log2FC” value (Gene 5520) was 0.059, the “PPP2R4 log2FC” value (Gene 5524) was -0.446 and the “PPP2R5C log2FC” value (Gene 5527) was 0.888. For the same compound, the “PPP3CA log2FC” value (Gene 5530) was 0.422, the “PPP5C log2FC” value (Gene 5536) was -0.138 and the “PPP6C log2FC” value (Gene 5537) was -0.352. The “PRCC log2FC” value (Gene 5546) was -0.798, the “PRIM1 log2FC” value (Gene 5557) was 0.636 and the “PRKAA1 log2FC” value (Gene 5562) was 0.429. For the same compound, the “PRKAA2 log2FC” value (Gene 5563) was 0.082, the “PRKAB1 log2FC” value (Gene 5564) was 0.427 and the “PRKAB2 log2FC” value (Gene 5565) was 1.177. The “PRKACA log2FC” value (Gene 5566) was -0.596, the “PKIA log2FC” value (Gene 5569) was -0.378 and the “PRKAG1 log2FC” value (Gene 5571) was 0.238. The “PRKAR1A log2FC” value (Gene 5573) was 0.532, the “PRKAR2B log2FC” value (Gene 5577) was 0.565 and the “PRKCA log2FC” value (Gene 5578) was -0.217. The “PRKCD log2FC” value (Gene 5580) was -0.079, the “PRKCE log2FC” value (Gene 5581) was -0.042 and the “PKN2 log2FC” value (Gene 5586) was 0.510. The “MAPK1 log2FC” value (Gene 5594) was -0.045, the “MAPK3 log2FC” value (Gene 5595) was -0.190 and the “MAPK13 log2FC” value (Gene 5603) was -0.354. For the same compound, the “MAP2K1 log2FC” value (Gene 5604) was -0.107, the “MAP2K6 log2FC” value (Gene 5608) was 0.116 and the “PROX1 log2FC” value (Gene 5629) was 0.206. The “KLK10 log2FC” value (Gene 5655) was -0.446, the “PSMA1 log2FC” value (Gene 5682) was 0.045 and the “PSMA4 log2FC” value (Gene 5685) was 0.609. The “PSMA6 log2FC” value (Gene 5687) was 0.200, the “PSMB1 log2FC” value (Gene 5689) was 0.085 and the “PSMB2 log2FC” value (Gene 5690) was -0.547. For the same compound, the “PSMB3 log2FC” value (Gene 5691) was -0.030, the “PSMB5 log2FC” value (Gene 5693) was -0.298 and the “PSMB6 log2FC” value (Gene 5694) was -0.120. The “PSMB8 log2FC” value (Gene 5696) was -0.045, the “PSMC1 log2FC” value (Gene 5700) was 0.172 and the “PSMC2 log2FC” value (Gene 5701) was 0.576. For the same compound, the “PSMC5 log2FC” value (Gene 5705) was -0.327, the “PSMC6 log2FC” value (Gene 5706) was 0.776 and the “PSMD2 log2FC” value (Gene 5708) was 0.090. The “PSMD3 log2FC” value (Gene 5709) was -0.109, the “PSMD4 log2FC” value (Gene 5710) was -0.086 and the “PSMD5 log2FC” value (Gene 5711) was 0.388. For the same compound, the “PSMD7 log2FC” value (Gene 5713) was 0.182, the “PSMD9 log2FC” value (Gene 5715) was -0.171 and the “PSMD12 log2FC” value (Gene 5718) was -0.582. For the same compound, the “PSMD13 log2FC” value (Gene 5719) was -0.031, the “PSME2 log2FC” value (Gene 5721) was 0.039 and the “PTEN log2FC” value (Gene 5728) was 1.014. The “PTGS2 log2FC” value (Gene 5743) was -0.151, the “PTPN3 log2FC” value (Gene 5774) was -0.174 and the “PTPN6 log2FC” value (Gene 5777) was 0.120. For the same compound, the “PTPRC log2FC” value (Gene 5788) was -0.053, the “PTPRK log2FC” value (Gene 5796) was 0.583 and the “RAD1 log2FC” value (Gene 5810) was -0.104. For the same compound, the “RAD9A log2FC” value (Gene 5883) was 0.686, the “RAD17 log2FC” value (Gene 5884) was 1.203 and the “RAD21 log2FC” value (Gene 5885) was 1.043. The “RAD51 log2FC” value (Gene 5888) was -0.360, the “RAD52 log2FC” value (Gene 5893) was 0.105 and the “RAN log2FC” value (Gene 5901) was 0.119. For the same compound, the “RANBP1 log2FC” value (Gene 5902) was -0.137, the “RANBP2 log2FC” value (Gene 5903) was 0.605 and the “RARA log2FC” value (Gene 5914) was -0.580. For the same compound, the “RASA1 log2FC” value (Gene 5921) was 0.488, the “RB1 log2FC” value (Gene 5925) was 0.746 and the “RBL2 log2FC” value (Gene 5934) was 0.480. For the same compound, the “RFC1 log2FC” value (Gene 5981) was 1.105, the “RFC2 log2FC” value (Gene 5982) was 0.117 and the “RFC5 log2FC” value (Gene 5985) was 0.243. For the same compound, the “RGS2 log2FC” value (Gene 5997) was -2.314, the “RHEB log2FC” value (Gene 6009) was 0.421 and the “RNF2 log2FC” value (Gene 6045) was -0.048. The “RNF4 log2FC” value (Gene 6047) was -0.426, the “RPA3 log2FC” value (Gene 6119) was 0.162 and the “RPS6KA2 log2FC” value (Gene 6196) was 0.035. The “RPS6KA3 log2FC” value (Gene 6197) was 0.412, the “RPS15A log2FC” value (Gene 6210) was 0.277 and the “RPS27 log2FC” value (Gene 6232) was 0.416. For the same compound, the “RPS27A log2FC” value (Gene 6233) was 0.401, the “RRM1 log2FC” value (Gene 6240) was 0.612 and the “RRM2 log2FC” value (Gene 6241) was -0.808. For the same compound, the “SETMAR log2FC” value (Gene 6419) was -0.171, the “SIAH2 log2FC” value (Gene 6478) was -0.579 and the “SKP2 log2FC” value (Gene 6502) was -1.072. The “SMARCA4 log2FC” value (Gene 6597) was -0.352, the “SOX2 log2FC” value (Gene 6657) was 0.298 and the “SOX9 log2FC” value (Gene 6662) was -2.381. For the same compound, the “SPAST log2FC” value (Gene 6683) was 0.519, the “SPTBN1 log2FC” value (Gene 6711) was 0.111 and the “SRPK2 log2FC” value (Gene 6733) was 0.850. For the same compound, the “TRIM21 log2FC” value (Gene 6737) was -0.066.
